The text below walks through data of patent US10681908B2, “Molecules having pesticidal utility, and intermediates, compositions, and processes, related thereto” (Dow AgroSciences LLC, priority 2016, dated 2020).

Usually mortality stands for the percentage killed.

Where two headings read alike, the source gives them in different places.

What all share (assay type): in vivo
Data set [1] has as its system Beet Armyworm (Spodoptera exigua, LAPHEG). In words: Bioassay on Beet Armyworm (BAW), 128-well diet tray assay. The following applies: for mortality at 50 µg/cm2: 168 h, 50 μg/cm^2 on artificial diet, second instar larvae, five to seven days, 25° C., read-out: BAW % Control (or Mortality) rating. The gist of the method:
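Artificial diet was surface-treated with 50 μg/cm^2 of compound in 90:10 acetone-water and dried; one to five second-instar larvae were placed per well, eight wells per treatment. Held at 25 °C, 14:10 light-dark, for five to seven days, then percent mortality per well was averaged.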

For data set [2], the system named is Cabbage Looper (Trichoplusia ni, TRIPNI). In words: Bioassay on Cabbage Looper (CL), 128-well diet tray assay. The following applies: for mortality at 50 µg/cm2: 168 h, 50 μg/cm^2 on artificial diet, second instar larvae, five to seven days, 25° C., read-out: CL % Control (or Mortality) rating. The gist of the method:
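Diet-tray assay: 1–5 second-instar larvae per well on artificial diet surface-treated with 50 μg/cm^2 compound (90:10 acetone-water, dried), eight wells per compound. Held at 25° C., 14:10 light-dark for five to seven days; percent mortality per well averaged across the eight wells.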

The subject of data set [3] is Yellow Fever Mosquito (Aedes aegypti, AEDSAE). To be noted: about 1 day-old larvae, 3 days, room temperature, scored on mortality. As for the experimental part: Example C: Bioassays on Yellow Fever Mosqurro (Aedes aegypti, AEDSAE) (“YFM”)
Certain molecules disclosed in this document were tested against YFM using procedures described in the following paragraph. In the reporting of the results, the “GPA & YFM Rating Table” was used (See Table Section).
Master plates containing 400 μg of a molecule dissolved in 100 μL of dimethyl sulfoxide (DMSO) (equivalent to a 4000 ppm solution) are used. A master plate of assembled molecules contains 15 μL per well. To this plate, 135 μL of a 90:10 water:acetone mixture is added to each well. A robot (Biomek® NXP Laboratory Automation Workstation) is programmed to dispense 15 μL aspirations from the master plate into an empty 96-well shallow plate (“daughter” plate). There are 6 reps (“daughter” plates) created per master. The created daughter plates are then immediately infested with YFM larvae.
The day before plates are to be treated, mosquito eggs are placed in Millipore water containing liver powder to begin hatching (4 g. into 400 mL). After the daughter plates are created using the robot, they are infested with 220 μL of the liver powder/larval mosquito mixture (about 1 day-old larvae). After plates are infested with mosquito larvae, a non-evaporative lid is used to cover the plate to reduce drying. Plates are held at room temperature for 3 days prior to grading. After 3 days, each well is observed and scored based on mortality. The results are indicated in the table entitled “Table ABC: Biological Results” (See Table Section).

Regarding `C[C@H](CS(=O)(=O)CC(F)(F)F)NC(=O)c1ccc(/C(F)=C/C(c2cc(Cl)cc(Cl)c2)C(F)(F)F)cc1C(F)(F)F` (stereo partly drawn) [F17, 4-((Z)-3-(3,5-dichlorophenyl)-1,4,4,4-tetrafluorobut-1-en-1-yl)-N—((R)-1-((2,2,2-trifluoroethyl)sulfonyl)propan-2-yl)-2-(trifluoromethyl)benzamide], the mortality at 50 µg/cm2 in data set [1] and in data set [2] was 50 to 100% throughout. In addition, the “YFM % Control (or Mortality) rating” value in data set [3] is on record as “A (80-100)”.
Regarding `C[C@H](CS(=O)(=O)CC(F)(F)F)NC(=O)c1ccc(/C(F)=C/C(c2ccc(Cl)c(Cl)c2)C(F)(F)F)cc1C(F)(F)F` (stereo partly drawn) [F18, 4-((Z)-3-(3,4-Dichlorophenyl)-1,4,4,4-tetrafluorobut-1-en-1-yl)-N—((R)-1-((2,2,2-trifluoroethyl)sulfonyl)propan-2-yl)-2-(trifluoromethyl)benzamide], the mortality at 50 µg/cm2 in data set [1] and in data set [2] was 50 to 100% in each case. Moreover, the “YFM % Control (or Mortality) rating” value in data set [3] is reported as “A (80-100)”.
With `C[C@H](CSCC(F)(F)F)NC(=O)c1ccc(/C(F)=C/C(c2cc(Cl)cc(Cl)c2)C(F)(F)F)cc1C(F)(F)F` (stereo partly drawn) [F19, 4-((Z)-3-(3,5-Dichlorophenyl)-1,4,4,4-tetrafluorobut-1-en-1-yl)-N—((R)-1-((2,2,2-trifluoroethyl)thio)propan-2-yl)-2-(trifluoromethyl)benzamide], the mortality at 50 µg/cm2 in data set [1] and in data set [2] was 50 to 100% in each case. Besides, in data set [3], the “YFM % Control (or Mortality) rating” value is recorded as “A (80-100)”.
As for `C[C@H](CSCC(F)(F)F)NC(=O)c1ccc(/C(F)=C/C(c2ccc(Cl)c(Cl)c2)C(F)(F)F)cc1C(F)(F)F` (stereo partly drawn) [F20, 4-((Z)-3-(3,4-Dichlorophenyl)-1,4,4,4-tetrafluorobut-1-en-1-yl)-N—((R)-1-((2,2,2-trifluoroethyl)thio)propan-2-yl)-2-(trifluoromethyl)benzamide], the mortality at 50 µg/cm2 in data set [1] and in data set [2] was 50 to 100% throughout. Also, the “YFM % Control (or Mortality) rating” value in data set [3] is listed as “D (No activity noticed in this bioassay)”.
For `C[C@H](C[S+]([O-])CC(F)(F)F)NC(=O)c1ccc(/C(F)=C/C(c2cc(Br)c(Cl)c(Br)c2)C(F)(F)F)cc1C(F)(F)F` (stereo partly drawn) [F23, 4-((Z)-3-(3,5-Dibromo-4-chlorophenyl)-1,4,4,4-tetrafluorobut-1-en-1-yl)-N-((2R)-1-((2,2,2-trifluoroethyl)sulfinyl)propan-2-yl)-2-(trifluoromethyl)benzamide], the mortality at 50 µg/cm2 in data set [1] and in data set [2] was 50 to 100% each time. The “YFM % Control (or Mortality) rating” value in data set [3] is listed as “A (80-100)”.
As for `C[C@H](CS(=O)(=O)CC(F)(F)F)NC(=O)c1ccc(/C(F)=C/C(c2cc(Cl)c(Br)c(Cl)c2)C(F)(F)F)cc1C(F)(F)F` (stereo partly drawn) [F25, 4-((Z)-3-(4-Bromo-3,5-dichlorophenyl)-1,4,4,4-tetrafluorobut-1-en-1-yl)-N—((R)-1-((2,2,2-trifluoroethyl)sulfonyl)propan-2-yl)-2-(trifluoromethyl)benzamide], the mortality at 50 µg/cm2 in data set [1] and in data set [2] was 50 to 100% throughout. Further, in data set [3], the “YFM % Control (or Mortality) rating” value is reported as “A (80-100)”.
Consider `CCS(=O)(=O)C[C@@H](C)NC(=O)c1ccc(/C(F)=C/C(c2cc(Br)c(Cl)c(Br)c2)C(F)(F)F)cc1C(F)(F)F` (stereo partly drawn) [F56, 4-((Z)-3-(3,5-Dibromo-4-chlorophenyl)-1,4,4,4-tetrafluorobut-1-en-1-yl)-N—((R)-1-(ethylsulfonyl)propan-2-yl)-2-(trifluoromethyl)benzamide], for which, in data set [3], the “YFM % Control (or Mortality) rating” value is listed as “A (80-100)”.
With `Cc1c(C(/C=C(\F)c2ccc(C(=O)N[C@H](C)CS(=O)(=O)CC(F)(F)F)c(C(F)(F)F)c2)C(F)(F)F)ccc(Cl)c1Cl` (stereo partly drawn) [F132, 4-((Z)-3-(3,4-Dichloro-2-methylphenyl)-1,4,4,4-tetrafluorobut-1-en-1-yl)-N—((R)-1-((2,2,2-trifluoroethyl)sulfonyl)propan-2-yl)-2-(trifluoromethyl)benzamide], the mortality at 50 µg/cm2 in data set [1] and in data set [2] was 50 to 100% throughout.
Turning to `C[C@H](CS(=O)(=O)CC(F)(F)F)NC(=O)c1ccc(/C(F)=C/C(c2cc(F)c(F)c(F)c2)C(F)(F)F)cc1C(F)(F)F` (stereo partly drawn) [F133, 4-((Z)-1,4,4,4-Tetrafluoro-3-(3,4,5-trifluorophenyl)but-1-en-1-yl)-N—((R)-1-((2,2,2-trifluoroethyl)sulfonyl)propan-2-yl)-2-(trifluoromethyl)benzamide], the mortality at 50 µg/cm2 in data set [1] and in data set [2] was 50 to 100% each time.
`C[C@H](CS(=O)(=O)CC(F)(F)F)NC(=O)c1ccc(/C(F)=C/[C@@H](c2cc(Cl)c(Cl)c(Cl)c2)C(F)(F)F)cc1C(F)(F)F` [F136, 4-((S,Z)-1,4,4,4-tetrafluoro-3-(3,4,5-trichlorophenyl)but-1-en-1-yl)-N—((R)-1-((2,2,2-trifluoroethyl)sulfonyl)propan-2-yl)-2-(trifluoromethyl)benzamide]: the mortality at 50 µg/cm2 in data set [1] and in data set [2] was 50 to 100% in each case.
As for `C[C@H](CSCCC(F)(F)F)NC(=O)c1ccc(/C(F)=C/C(c2cc(Cl)c(Cl)c(Cl)c2)C(F)(F)F)cc1C(F)(F)F` (stereo partly drawn) [F137, 4-((Z)-1,4,4,4-Tetrafluoro-3-(3,4,5-trichlorophenyl)but-1-en-1-yl)-2-(trifluoromethyl)-N—((R)-1-((3,3,3-trifluoropropyl)thio)propan-2-yl)benzamide], the mortality at 50 µg/cm2 in data set [1] and in data set [2] was 50 to 100% in each case.
Consider `O=C(NCC[S+]([O-])CCF)c1ccc(/C(F)=C/C(c2cc(Cl)c(Cl)c(Cl)c2)C(F)(F)F)cc1C(F)(F)F` (stereo not drawn) [F138, (Z)—N-(2-((2-Fluoroethyl)sulfinyl)ethyl)-4-(1,4,4,4-tetrafluoro-3-(3,4,5-trichlorophenyl)but-1-en-1-yl)-2-(trifluoromethyl)benzamide], for which the mortality at 50 µg/cm2 in data set [1] and in data set [2] was 50 to 100% each time.
For `C[C@H](CS(=O)(=O)CC(F)(F)F)NC(=O)c1ccc(/C(F)=C/C(c2cc(Cl)c(Cl)c(Cl)c2)C(C)(F)F)cc1` (stereo partly drawn) [FC1, 4-((Z)-1,4,4-Trifluoro-3-(3,4,5-trichlorophenyl)pent-1-en-1-yl)-N—((R)-1-((2,2,2-trifluoroethyl)sulfonyl)propan-2-yl)benzamide], the mortality at 0.05 µg/cm2 was 0% in data set [1] (0.05 μg/cm^2, read-out: BAW Percent control (or mortality)) and 0% in data set [2] (0.05 μg/cm^2, read-out: CL Percent control (or mortality)). The mortality at 0.5 µg/cm2 in data set [1] (0.5 μg/cm^2, read-out: BAW Percent control (or mortality)) was 20%; in data set [2] (0.5 μg/cm^2, read-out: CL Percent control (or mortality)), 81%. For the same molecule, the mortality at 5 µg/cm2 is 100% in data set [1] (5 μg/cm^2, read-out: BAW Percent control (or mortality)) and 100% in data set [2] (5 μg/cm^2, read-out: CL Percent control (or mortality)).
`C[C@H](CSCC(F)(F)F)NC(=O)c1ccc(/C(F)=C/C(c2cc(Cl)c(Cl)c(Cl)c2)C(C)(F)F)cc1` (stereo partly drawn) [FC2, 4-((Z)-1,4,4-Trifluoro-3-(3,4,5-trichlorophenyl)pent-1-en-1-yl)-N—((R)-1-((2,2,2-trifluoroethyl)thio)propan-2-yl)benzamide]: the mortality at 0.05 µg/cm2 is 0% in data set [1] (0.05 μg/cm^2, Table CD2 comparative data, read-out: Percent control (or mortality) BAW) and 0% in data set [2] (0.05 μg/cm^2, Table CD2 comparative data, read-out: Percent control (or mortality) CL). Moreover, the mortality at 0.5 µg/cm2 turned out to be 20% in data set [1] (0.5 μg/cm^2, Table CD2 comparative data, read-out: Percent control (or mortality) BAW) and 0% in data set [2] (0.5 μg/cm^2, Table CD2 comparative data, read-out: Percent control (or mortality) CL). In addition, the mortality at 5 µg/cm2 turned out to be 100% in data set [1] (5 μg/cm^2, Table CD2 comparative data, read-out: Percent control (or mortality) BAW) and 100% in data set [2] (5 μg/cm^2, Table CD2 comparative data, read-out: Percent control (or mortality) CL).
As to `C[C@H](CS(=O)(=O)CC(F)(F)F)NC(=O)c1ccc(/C(F)=C/C(c2ccc(Cl)c(F)c2)C(F)(F)F)cc1C(F)(F)F` (stereo partly drawn) [PF4, 4-((Z)-3-(4-Chloro-3-fluorophenyl)-1,4,4,4-tetrafluorobut-1-en-1-yl)-N—((R)-1-((2,2,2-trifluoroethyl)sulfonyl)propan-2-yl)-2-(trifluoromethyl)benzamide], the mortality at 50 µg/cm2 in data set [1] and in data set [2] was 50 to 100% in each case.
`Cc1cc(C(/C=C(\F)c2ccc(C(=O)N[C@H](C)CS(=O)(=O)CC(F)(F)F)c(C(F)(F)F)c2)C(F)(F)F)ccc1Cl` (stereo partly drawn) [PF8, 4-((Z)-3-(4-Chloro-3-methylphenyl)-1,4,4,4-tetrafluorobut-1-en-1-yl)-N—((R)-1-((2,2,2-trifluoroethyl)sulfonyl)propan-2-yl)-2-(trifluoromethyl)benzamide]: the mortality at 50 µg/cm2 in data set [1] and in data set [2] was 50 to 100% throughout.
